Reference: patent US20200308222A1, “ANTIMICROBIAL TETRAPEPTIDES” (DSM IP ASSETS B.V., priority 2017, published 2020)
Non-standard residues stand in square brackets, D forms with d. Residues, ends and D or L forms follow the SMILES beside them. *: point of attachment. 2Nal = N[C@@H](Cc1ccc2ccccc2c1)C(=O)O; d2Nal = N[C@H](Cc1ccc2ccccc2c1)C(=O)O; Butanoyl(4-Ph) = O=C(CCCc1ccccc1)*; Dab = NCC[C@H](N)C(=O)O

Legend:
Assay in all cases: Minimum inhibitory concentration (MIC), liquid media method in 96-well plates
[1] = test system: B. subtilis (ATCC 6633); assay type: cell-based, Bacillus subtilis; conditions: 1,2×10^5 cfu/ml per well; incubated 48 hours at 32,5° C.; turbidity read-out
Protocol: (§1) The peptides are dissolved in culture medium at 400 ppm. A control in the microbiological medium alone and a control consisting of Phenonip® prepared to 5% (v/v) directly in the microbiological medium was used. The determination of minimal inhibitory concentration of each product is performed according to a liquid media method adapted in 96-wells plates. To determine the minimum inhibitory concentration (MIC), the peptides are tested in serial dilutions (½ to ½ for 8 dilutions) directly in the liquid culture medium to favor the growth of bacteria in microplate 96 wells. Then, each point of dilution is contaminated with each strain at about 7×10^5 cfu/ml for S. aureus (ATCC 6538), 5.5×10^5 cfu/ml for P. acnes (ATCC 11827) and 1,2×10^5 cfu/ml for B. subtilis (ATCC 6633) per well. Finally, plates are incubated 48 hours at 32, 5° C.±2.5° C., taking care to respect the respiratory type of each strain. […] The last dilution corresponding to the absence of bacterial growth is taken as minimum inhibitory concentration (MIC) for the microbial strain considered.

[2] = test system: P. acnes (ATCC 11827); assay type: cell-based, Propionibacterium acnes; conditions: 5.5×10^5 cfu/ml per well; incubated 48 hours at 32,5° C.; turbidity read-out
Protocol: as §1

[3] = test system: S. aureus (ATCC 6538); assay type: cell-based, Staphylococcus aureus; conditions: about 7×10^5 cfu/ml per well; incubated 48 hours at 32,5° C.; turbidity read-out
Protocol: as §1

MIC values B. subtilis [1] [ppm]	MIC values P. acnes [2] [ppm]	MIC values S. aureus [3] [ppm]	Structure (SMILES)
62.5	500	125	N=C(N)NCCC[C@H](NC(=O)[C@@H](Cc1ccccc1)NC(=O)[C@H](Cc1c[nH]cn1)NC(=O)CCCc1ccccc1)C(=O)N[C@@H](Cc1ccc2ccccc2c1)C(N)=O [I-a, PhBu-His-D-Phe-Arg-L-2NaphAla-NH2 *2TFA] ({Butanoyl(4-Ph)}-H[dF]R[2Nal]-NH2)
100	400		N=C(N)NCCC[C@H](NC(=O)[C@@H](Cc1ccccc1)NC(=O)[C@H](Cc1c[nH]cn1)NC(=O)CCCc1ccccc1)C(=O)N[C@H](Cc1ccc2ccccc2c1)C(N)=O [I-b, PhBu-His-D-Phe-Arg-D-2NaphAla-NH2 *2TFA] ({Butanoyl(4-Ph)}-H[dF]R[d2Nal]-NH2)
200			COc1ccc(CCCC(=O)N[C@@H](Cc2c[nH]cn2)C(=O)N[C@H](Cc2ccccc2)C(=O)N[C@@H](CCCNC(=N)N)C(=O)N[C@@H](Cc2c[nH]c3ccccc23)C(N)=O)cc1 [I-c, 4-MeO—PhBu-His-D-Phe-Arg-Trp-NH2 × 2 AcOH]
15.6	125	31.3	CCCN(CCC)C(=O)[C@H](Cc1c[nH]c2ccccc12)NC(=O)[C@H](CCCNC(=N)N)NC(=O)[C@@H](Cc1ccccc1)NC(=O)[C@H](Cc1c[nH]cn1)NC(=O)CCCc1ccccc1 [I-d, PhBu-His-D-Phe-Arg-Trp-N(Propyl)2 *2TFA]
400			NCC[C@H](NC(=O)[C@@H](Cc1ccccc1)NC(=O)[C@H](Cc1c[nH]cn1)NC(=O)CCCc1ccccc1)C(=O)N[C@@H](Cc1c[nH]c2ccccc12)C(N)=O [I-e, PhBu-His-D-Phe-Dab-Trp-NH2 *2TFA] ({Butanoyl(4-Ph)}-H[dF][Dab]W-NH2)
252		400	N=C(N)NCCC[C@H](NC(=O)[C@@H](Cc1ccccc1)NC(=O)[C@H](Cc1c[nH]cn1)NC(=O)CCCc1ccccc1)C(=O)N[C@@H](Cc1c[nH]c2ccccc12)C(=O)NCc1ccccc1 [I-f, PhBu-His-D-Phe-Arg-Trp-NH-Bn *2TFA]
252		200	CCCCCCCCNC(=O)[C@H](Cc1c[nH]c2ccccc12)NC(=O)[C@H](CCCNC(=N)N)NC(=O)[C@@H](Cc1ccccc1)NC(=O)[C@H](Cc1c[nH]cn1)NC(=O)CCCc1ccccc1 [I-g, PhBu-His-D-Phe-Arg-Trp-NH-Octyl *2TFA]
317			N=C(N)NCCC[C@H](NC(=O)[C@@H](Cc1ccccc1)NC(=O)[C@H](Cc1c[nH]cn1)NC(=O)CCCc1ccccc1)C(=O)N[C@@H](Cc1c[nH]c2ccccc12)C(=O)NCC(O)CO (stereo partly drawn) [I-h, PhBu-His-D-Phe-Arg-Trp-NH—CH2—CH(OH)—CH2OH *2TFA]
